Experiment: xn = mol fraction of the nth substance listed
Conditions: Liquid, Vibrating tube method

CC(C)(C)Cl [2-chloro-2-methylpropane] + CCCCCCC
mass density [kg/m3]
Conditions | 283.15 K | 293.15 K | 298.15 K
100 kPa, x2 = 0.0554 | 842.44 | 830.68 | 824.75
100 kPa, x2 = 0.1017 | 832.31 | 820.81 | 814.99
100 kPa, x2 = 0.2004 | 811.94 | 800.91 | 795.33
100 kPa, x2 = 0.3016 | 792.65 | 782.03 | 776.67
100 kPa, x2 = 0.4097 | 773.66 | 763.43 | 758.26
100 kPa, x2 = 0.498 | 759.27 | 749.33 | 744.32
100 kPa, x2 = 0.5983 | 744.02 | 734.42 | 729.58
100 kPa, x2 = 0.7017 | 729.43 | 720.16 | 715.49
100 kPa, x2 = 0.7995 | 716.55 | 707.61 | 703.09
100 kPa, x2 = 0.9032 | 703.79 | 695.15 | 690.79
100 kPa, x2 = 0.9482 | 698.49 | 689.98 | 685.68
2000 kPa, x2 = 0.0554 | 844.68 | 833.14 | 827.29
2000 kPa, x2 = 0.1017 | 834.48 | 823.24 | 817.46
2000 kPa, x2 = 0.2004 | 814.1 | 803.29 | 797.78
2000 kPa, x2 = 0.3016 | 794.78 | 784.22 | 778.97
2000 kPa, x2 = 0.4097 | 775.6 | 765.58 | 760.5
2000 kPa, x2 = 0.498 | 761.33 | 751.59 | 746.66
2000 kPa, x2 = 0.5983 | 745.93 | 736.51 | 731.77
2000 kPa, x2 = 0.7017 | 731.35 | 722.23 | 717.66
2000 kPa, x2 = 0.7995 | 718.47 | 709.61 | 705.19
2000 kPa, x2 = 0.9032 | 705.72 | 697.14 | 692.86
2000 kPa, x2 = 0.9482 | 700.41 | 691.94 | 687.76
5000 kPa, x2 = 0.0554 | 848.13 | 836.88 | 831.22
5000 kPa, x2 = 0.1017 | 837.91 | 826.9 | 821.35
5000 kPa, x2 = 0.2004 | 817.4 | 806.74 | 801.38
5000 kPa, x2 = 0.3016 | 797.97 | 787.77 | 782.63
5000 kPa, x2 = 0.4097 | 778.78 | 769.03 | 763.93
5000 kPa, x2 = 0.498 | 764.17 | 754.81 | 749.94
5000 kPa, x2 = 0.5983 | 748.83 | 739.75 | 734.95
5000 kPa, x2 = 0.7017 | 734.11 | 725.28 | 720.69
5000 kPa, x2 = 0.7995 | 721.17 | 712.57 | 708.17
5000 kPa, x2 = 0.9032 | 708.35 | 700.04 | 695.72
5000 kPa, x2 = 0.9482 | 703.02 | 694.81 | 690.58
7000 kPa, x2 = 0.0554 | 850.47 | 839.29 | 833.69
7000 kPa, x2 = 0.1017 | 840.22 | 829.3 | 823.79
7000 kPa, x2 = 0.2004 | 819.61 | 809.03 | 803.89
7000 kPa, x2 = 0.3016 | 800.1 | 789.87 | 784.93
7000 kPa, x2 = 0.4097 | 780.74 | 771.15 | 766.14
7000 kPa, x2 = 0.498 | 766.3 | 756.85 | 752.1
7000 kPa, x2 = 0.5983 | 750.75 | 741.66 | 737.06
7000 kPa, x2 = 0.7017 | 736.02 | 727.16 | 722.75
7000 kPa, x2 = 0.7995 | 722.99 | 714.5 | 710.2
7000 kPa, x2 = 0.9032 | 710.1 | 701.82 | 697.64
7000 kPa, x2 = 0.9482 | 704.76 | 696.6 | 692.49
10000 kPa, x2 = 0.0554 | 853.75 | 842.85 | 837.41
10000 kPa, x2 = 0.1017 | 843.46 | 832.92 | 827.3
10000 kPa, x2 = 0.2004 | 822.51 | 812.44 | 807.34
10000 kPa, x2 = 0.3016 | 803.09 | 793.26 | 788.26
10000 kPa, x2 = 0.4097 | 783.69 | 774.21 | 769.41
10000 kPa, x2 = 0.498 | 769.05 | 759.84 | 755.22
10000 kPa, x2 = 0.5983 | 753.62 | 744.65 | 740.1
10000 kPa, x2 = 0.7017 | 738.75 | 730.1 | 725.72
10000 kPa, x2 = 0.7995 | 725.53 | 717.31 | 712.96
10000 kPa, x2 = 0.9032 | 712.59 | 704.57 | 700.3
10000 kPa, x2 = 0.9482 | 707.21 | 699.31 | 695.09
20000 kPa, x2 = 0.0554 | 864 | 853.69 | 848.71
20000 kPa, x2 = 0.1017 | 853.55 | 843.51 | 838.45
20000 kPa, x2 = 0.2004 | 832.47 | 822.74 | 818.1
20000 kPa, x2 = 0.3016 | 812.54 | 803.2 | 798.58
20000 kPa, x2 = 0.4097 | 792.93 | 783.9 | 779.66
20000 kPa, x2 = 0.498 | 778.04 | 769.27 | 765.11
20000 kPa, x2 = 0.5983 | 762.35 | 753.74 | 749.57
20000 kPa, x2 = 0.7017 | 747.22 | 738.84 | 734.93
20000 kPa, x2 = 0.7995 | 733.81 | 725.88 | 721.79
20000 kPa, x2 = 0.9032 | 720.64 | 712.92 | 708.9
20000 kPa, x2 = 0.9482 | 715.18 | 707.57 | 703.58
30000 kPa, x2 = 0.0554 | 873.3 | 863.54 | 858.8
30000 kPa, x2 = 0.1017 | 862.73 | 853.13 | 848.35
30000 kPa, x2 = 0.2004 | 841.24 | 832.13 | 827.76
30000 kPa, x2 = 0.3016 | 821.19 | 812.29 | 807.95
30000 kPa, x2 = 0.4097 | 801.28 | 792.63 | 788.48
30000 kPa, x2 = 0.498 | 786.13 | 777.78 | 773.73
30000 kPa, x2 = 0.5983 | 770.17 | 762.02 | 758.07
30000 kPa, x2 = 0.7017 | 754.83 | 746.9 | 743.08
30000 kPa, x2 = 0.7995 | 741.14 | 733.66 | 729.79
30000 kPa, x2 = 0.9032 | 727.83 | 720.51 | 716.58
30000 kPa, x2 = 0.9482 | 722.3 | 715.09 | 711.27
40000 kPa, x2 = 0.0554 | 881.82 | 872.42 | 867.89
40000 kPa, x2 = 0.1017 | 870.96 | 862.05 | 857.39
40000 kPa, x2 = 0.2004 | 849.41 | 840.65 | 836.44
40000 kPa, x2 = 0.3016 | 829.08 | 820.63 | 816.41
40000 kPa, x2 = 0.4097 | 808.91 | 800.54 | 796.66
40000 kPa, x2 = 0.498 | 793.67 | 785.54 | 781.69
40000 kPa, x2 = 0.5983 | 777.41 | 769.5 | 765.72
40000 kPa, x2 = 0.7017 | 761.79 | 754.19 | 750.52
40000 kPa, x2 = 0.7995 | 747.96 | 740.77 | 737.07
40000 kPa, x2 = 0.9032 | 734.49 | 727.37 | 723.74
40000 kPa, x2 = 0.9482 | 728.9 | 721.88 | 718.29
50000 kPa, x2 = 0.0554 | 889.56 | 880.62 | 876.38
50000 kPa, x2 = 0.1017 | 878.68 | 870 | 865.68
50000 kPa, x2 = 0.2004 | 856.76 | 848.46 | 844.44
50000 kPa, x2 = 0.3016 | 836.39 | 828.17 | 824.32
50000 kPa, x2 = 0.4097 | 815.92 | 807.96 | 804.27
50000 kPa, x2 = 0.498 | 800.51 | 792.71 | 789.1
50000 kPa, x2 = 0.5983 | 784.09 | 776.5 | 772.96
50000 kPa, x2 = 0.7017 | 768.34 | 761.01 | 757.53
50000 kPa, x2 = 0.7995 | 754.42 | 747.33 | 743.9
50000 kPa, x2 = 0.9032 | 740.62 | 733.84 | 730.37
50000 kPa, x2 = 0.9482 | 734.97 | 728.3 | 724.81
60000 kPa, x2 = 0.0554 | 896.85 | 888.24 | 884.1
60000 kPa, x2 = 0.1017 | 885.94 | 877.59 | 873.27
60000 kPa, x2 = 0.2004 | 863.93 | 855.9 | 852
60000 kPa, x2 = 0.3016 | 843.17 | 835.3 | 831.63
60000 kPa, x2 = 0.4097 | 822.77 | 814.87 | 811.3
60000 kPa, x2 = 0.498 | 807.05 | 799.57 | 796.01
60000 kPa, x2 = 0.5983 | 790.42 | 783.15 | 779.73
60000 kPa, x2 = 0.7017 | 774.43 | 767.47 | 764.12
60000 kPa, x2 = 0.7995 | 760.28 | 753.62 | 750.3
60000 kPa, x2 = 0.9032 | 746.42 | 739.97 | 736.68
60000 kPa, x2 = 0.9482 | 740.73 | 734.33 | 731.11
65000 kPa, x2 = 0.0554 | 900.21 | 891.92 | 887.83
65000 kPa, x2 = 0.1017 | 889.29 | 881.11 | 877.03
65000 kPa, x2 = 0.2004 | 867.33 | 859.41 | 855.63
65000 kPa, x2 = 0.3016 | 846.38 | 838.73 | 834.93
65000 kPa, x2 = 0.4097 | 825.84 | 818.27 | 814.66
65000 kPa, x2 = 0.498 | 809.97 | 802.79 | 799.35
65000 kPa, x2 = 0.5983 | 793.31 | 786.25 | 782.96
65000 kPa, x2 = 0.7017 | 777.27 | 770.47 | 767.16
65000 kPa, x2 = 0.7995 | 763.11 | 756.52 | 753.28
65000 kPa, x2 = 0.9032 | 749.1 | 742.75 | 739.66
65000 kPa, x2 = 0.9482 | 743.43 | 737.09 | 734.01

— the NIST ThermoML archive (doi:10.1016/j.tca.2015.06.017)
